Patent US5932410A, “Assay for the detection of proteases” (Commonwealth Scientific and Industrial Research …, priority 1994, dated 1999)
Where a SMILES comes first, the peptide text is derived from it. The star is where a group is joined. Cbz = O=C(OCc1ccccc1)*

How the values were obtained:
Type in all cases: biochemical
Chymotrypsin = Chymotrypsin (Bos taurus, UniProt P00766); assay: Esterase assay, chymotrypsin; details: Z-AX-OMe substrate; for Esterase rate, Chymotrypsin: X = P1 residue, rates approximately ± 10%; for % of maximum activity, Chymotrypsin: percentage of the maximum activity
Source text: (§1) Advantage was taken of this activity to develop an "esterase" assay which uses a pH indicator to visualise the hydrogen ion release caused by the action of proteases on peptide-ester substrates. A series of twenty compounds of the form, carbobenzoxy alanyl-X-methyl ester (Z-AX-OMe) were synthesised where "X" is one of the naturally occurring amino acids. These substrates were used in a 96 well microtitre plate assay to screen each mutant enzyme for activity and specificity. The reactions were followed visually or quantified using a standard ELISA plate reader. The esterase assay, using trypsin as a test enzyme and Z-Ala-Arg-OMe as substrate, was more sensitive as than traditional trypsin substrates (three times the rate obtained with benzoyl arginine ethyl aster and twenty times the rate of benzoyl arginine p-nitroanilide) (Whittaker et al., Analytical Biochemistry, 220, 238-243, 1994).
(§2) The present inventors produced a panel of substrates carbobenzoxy alanyl-X-methyl eater (Z-AX-OMe) where X is one of the naturally occurring amino acids. The reactivity of these substrates with a number of serine proteases is set out in Table 1 and FIG. 1.
(§3) Rates are A580 change/min./mg protease. Rates are also shown as a […]

Trypsin = assay: Esterase assay, trypsin; details: Z-AX-OMe substrate; for Esterase rate, Trypsin: X = P1 residue, rates approximately ± 10%; for % of maximum activity, Trypsin: percentage of the maximum activity
Source text: as §1, §2, §3

Thrombin = Thrombin (Homo sapiens, UniProt P00734); assay: Esterase assay, thrombin; details: Z-AX-OMe substrate; for Esterase rate, Thrombin: X = P1 residue, rates approximately ± 10%; for % of maximum activity, Thrombin: percentage of the maximum activity
Source text: as §1, §2, §3

Elastase = Elastase (Sus scrofa, UniProt P00772); assay: Esterase assay, elastase; details: Z-AX-OMe substrate; for Esterase rate, Elastase: X = P1 residue, rates approximately ± 10%; for % activity, Elastase: normalised to alanine
Source text: as §1, §2, §3

α-Lytic protease = α-Lytic protease (Lysobacter enzymogenes, UniProt P00778); assay: Esterase assay, α-lytic protease; details: Z-AX-OMe substrate; for Esterase rate, α-Lytic protease: X = P1 residue, rates approximately ± 10%; for % activity, α-Lytic protease: normalised to alanine
Source text: as §1, §2, §3

Subtilisin = assay: Esterase assay, subtilisin; details: Z-AX-OMe substrate; for Esterase rate, Subtilisin: X = P1 residue, rates approximately ± 10%; for % of maximum activity, Subtilisin: percentage of the maximum activity
Source text: as §1, §2, §3

Proteinase K = Proteinase K (Parengyodontium album, UniProt P06873); assay: Esterase assay, proteinase K; details: Z-AX-OMe substrate; for Esterase rate, Proteinase K: X = P1 residue, rates approximately ± 10%; for % of maximum activity, Proteinase K: percentage of the maximum activity
Source text: as §1, §2, §3

α-Lytic protease, sequence (P00778 25-397 limits assumed): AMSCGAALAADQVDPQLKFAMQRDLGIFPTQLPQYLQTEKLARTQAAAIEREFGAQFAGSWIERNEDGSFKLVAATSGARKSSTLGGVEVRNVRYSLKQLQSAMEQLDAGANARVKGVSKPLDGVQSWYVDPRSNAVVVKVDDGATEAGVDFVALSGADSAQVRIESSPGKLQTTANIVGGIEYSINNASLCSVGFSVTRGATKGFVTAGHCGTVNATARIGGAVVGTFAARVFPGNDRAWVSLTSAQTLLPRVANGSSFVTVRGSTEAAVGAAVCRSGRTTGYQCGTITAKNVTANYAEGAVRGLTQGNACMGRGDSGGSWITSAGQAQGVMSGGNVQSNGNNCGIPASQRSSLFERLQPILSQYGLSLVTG
Proteinase K, sequence (P06873 106-384): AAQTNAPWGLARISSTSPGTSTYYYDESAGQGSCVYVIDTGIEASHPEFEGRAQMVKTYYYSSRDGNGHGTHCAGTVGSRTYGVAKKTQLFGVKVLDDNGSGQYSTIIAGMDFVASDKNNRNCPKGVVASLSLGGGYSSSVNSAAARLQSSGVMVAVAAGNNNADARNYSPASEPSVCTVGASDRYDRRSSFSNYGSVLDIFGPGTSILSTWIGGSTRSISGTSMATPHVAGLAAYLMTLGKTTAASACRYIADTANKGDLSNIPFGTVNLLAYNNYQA
Elastase, sequence (P00772 27-266): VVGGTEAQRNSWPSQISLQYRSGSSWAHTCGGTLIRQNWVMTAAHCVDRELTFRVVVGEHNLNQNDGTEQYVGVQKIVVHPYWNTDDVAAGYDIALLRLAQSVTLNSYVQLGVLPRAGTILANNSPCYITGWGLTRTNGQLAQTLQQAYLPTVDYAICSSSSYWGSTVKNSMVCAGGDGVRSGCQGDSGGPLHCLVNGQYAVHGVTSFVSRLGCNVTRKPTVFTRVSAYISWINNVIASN

Structure (SMILES) | Esterase rate, Chymotrypsin (Chymotrypsin) | % of maximum activity, Chymotrypsin (Chymotrypsin) [%] | Esterase rate, Trypsin (Trypsin) | % of maximum activity, Trypsin (Trypsin) [%] | Esterase rate, Thrombin (Thrombin) | % of maximum activity, Thrombin (Thrombin) [%] | Esterase rate, Elastase (Elastase) | % activity, Elastase (Elastase) [%] | Esterase rate, α-Lytic protease (α-Lytic protease) | % activity, α-Lytic protease (α-Lytic protease) [%] | Esterase rate, Subtilisin (Subtilisin) | % of maximum activity, Subtilisin (Subtilisin) [%] | Esterase rate, Proteinase K (Proteinase K) | % of maximum activity, Proteinase K (Proteinase K) [%]
COC(=O)[C@H](Cc1ccccc1)NC(=O)[C@H](C)NC(=O)OCc1ccccc1 [Phe] | 37.8 A580 change/min./mg protease | 68.5 | 2.9 A580 change/min./mg protease | 0.8 | 0 A580 change/min./mg protease | 0 | 0 A580 change/min./mg protease | 0 | 0 A580 change/min./mg protease | 0 | 998 A580 change/min./mg protease | 46.0 | 342 A580 change/min./mg protease | 44.1
CC[C@H](C)[C@H](NC(=O)[C@H](C)NC(=O)OCc1ccccc1)C(=O)OC [Ile] (Cbz-Ala-Ile-OMe) | 0 A580 change/min./mg protease | 0 | 0 A580 change/min./mg protease | 0 | 0 A580 change/min./mg protease | 0 | 1.7 A580 change/min./mg protease | 11.0 | 0 A580 change/min./mg protease | 0 | 16 A580 change/min./mg protease | 0.7 | 5 A580 change/min./mg protease | 0.6
COC(=O)[C@H](CCC(=O)O)NC(=O)[C@H](C)NC(=O)OCc1ccccc1 [Glu] (Cbz-Ala-Glu-OMe) | 0 A580 change/min./mg protease | 0 | 0 A580 change/min./mg protease | 0 | 0 A580 change/min./mg protease | 0 | 0 A580 change/min./mg protease | 0 | 0 A580 change/min./mg protease | 0 | 83 A580 change/min./mg protease | 3.9 | 97 A580 change/min./mg protease | 12.5
COC(=O)[C@H](CS)NC(=O)[C@H](C)NC(=O)OCc1ccccc1 [Cys] (Cbz-Ala-Cys-OMe) | 0.4 A580 change/min./mg protease | 0.7 | 0 A580 change/min./mg protease | 0 | 0 A580 change/min./mg protease | 0 | 86.1 A580 change/min./mg protease | 548.4 | 8.5 A580 change/min./mg protease | 137.1 | 1251 A580 change/min./mg protease | 58.2 | 392 A580 change/min./mg protease | 50.6
COC(=O)[C@H](Cc1c[nH]c2ccccc12)NC(=O)[C@H](C)NC(=O)OCc1ccccc1 [Trp] (Cbz-Ala-Trp-OMe) | 27.2 A580 change/min./mg protease | 49.3 | trace |  | 0 A580 change/min./mg protease | 0 | 0 A580 change/min./mg protease | 0 | 0 A580 change/min./mg protease | 0 | 216 A580 change/min./mg protease | 10.1 | 353 A580 change/min./mg protease | 45.5
COC(=O)[C@@H](NC(=O)[C@H](C)NC(=O)OCc1ccccc1)C(C)C [Val] (Cbz-Ala-Val-OMe) | 0 A580 change/min./mg protease | 0 | 0 A580 change/min./mg protease | 0 | 0 A580 change/min./mg protease | 0 | 2.1 A580 change/min./mg protease | 13.4 | 1.3 A580 change/min./mg protease | 21.0 | 35 A580 change/min./mg protease | 1.6 | 97 A580 change/min./mg protease | 12.5
COC(=O)[C@@H]1CCCN1C(=O)[C@H](C)NC(=O)OCc1ccccc1 [Pro] (Cbz-Ala-Pro-OMe) | 0 A580 change/min./mg protease | 0 | 0 A580 change/min./mg protease | 0 | 0 A580 change/min./mg protease | 0 | 0 A580 change/min./mg protease | 0 | 0 A580 change/min./mg protease | 0 | trace |  | trace | 
COC(=O)CNC(=O)[C@H](C)NC(=O)OCc1ccccc1 [Gly] (Cbz-Ala-Gly-OMe) | 0 A580 change/min./mg protease | 0 | 0 A580 change/min./mg protease | 0 | 0 A580 change/min./mg protease | 0 | 0 A580 change/min./mg protease | 0 | 0 A580 change/min./mg protease | 0 | 22 A580 change/min./mg protease | 1.0 | 58 A580 change/min./mg protease | 7.5
COC(=O)[C@H](CC(=O)O)NC(=O)[C@H](C)NC(=O)OCc1ccccc1 [Asp] (Cbz-Ala-Asp-OMe) | 0 A580 change/min./mg protease | 0 | 0 A580 change/min./mg protease | 0 | 0 A580 change/min./mg protease | 0 | 0 A580 change/min./mg protease | 0 | 0 A580 change/min./mg protease | 0 | trace |  | 18 A580 change/min./mg protease | 2.3
COC(=O)[C@H](CC(N)=O)NC(=O)[C@H](C)NC(=O)OCc1ccccc1 [Asn] (Cbz-Ala-Asn-OMe) | 0.3 A580 change/min./mg protease | 0.5 | 0 A580 change/min./mg protease | 0 | 0 A580 change/min./mg protease | 0 | 0 A580 change/min./mg protease | 0 | 0 A580 change/min./mg protease | 0 | 244 A580 change/min./mg protease | 11.4 | 137 A580 change/min./mg protease | 17.7
COC(=O)[C@H](CCSC)NC(=O)[C@H](C)NC(=O)OCc1ccccc1 [Met] (Cbz-Ala-Met-OMe) | 6.6 A580 change/min./mg protease | 12.0 | 0 A580 change/min./mg protease | 0 | 0 A580 change/min./mg protease | 0 | trace |  | 2.0 A580 change/min./mg protease | 32.3 | 2149 A580 change/min./mg protease | 100 | 525 A580 change/min./mg protease | 67.7
